Assay results as given in ChEMBL document CHEMBL4229479, “Synthesis and evaluation of panaxatriol derivatives as Na+, K+-ATPase inhibitors” (Bioorg Med Chem Lett, 2018).

Target: Sodium/potassium-transporting ATPase
Assay: Inhibition of human Na+/K+-ATPase assessed as reduction in inorganic phosphate release from ATP incubated for 15 mins followed by ATP addition measured over 15 mins in presence of Na+/K+ by colorimetric method
Type: protein-complex assay
Conditions: not given
Work on C=CCO[C@H]1CC[C@]2(C)[C@H]3C[C@@H](O)[C@@H]4[C@@H]([C@@]5(C)CCCC(C)(C)O5)CC[C@@]4(C)[C@]3(C)CC(=O)[C@H]2C1(C)C yielded an IC50 of 1050 nM. Work on C=CCO[C@H]1C[C@]2(C)[C@H](C[C@@H](OCC=C)[C@@H]3[C@@H]([C@@]4(C)CCCC(C)(C)O4)CC[C@]32C)[C@@]2(C)CCC(=O)C(C)(C)[C@H]12 yielded an IC50 of 750 nM. Molecule CC1(C)CCC[C@](C)([C@H]2CC[C@]3(C)[C@@H]2C(=O)C[C@@H]2[C@@]4(C)CCC(=O)OC(C)(C)[C@@H]4C(=O)C[C@]23C)O1 has an IC50 of 1130 nM. With CCOC(=O)NC(=S)O[C@H]1CC[C@]2(C)[C@H]3C[C@@H](O)[C@@H]4[C@@H]([C@@]5(C)CCCC(C)(C)O5)CC[C@@]4(C)[C@]3(C)CC(=O)[C@H]2C1(C)C the IC50 was 1380 nM. For CC1(C)CCC[C@](C)([C@H]2CC[C@]3(C)[C@@H]2C(=O)C[C@@H]2[C@@]4(C)CCC(=O)C(C)(C)[C@@H]4C(=O)C[C@]23C)O1, the IC50 was 760 nM. For CC1(C)CCC[C@](C)([C@H]2CC[C@]3(C)[C@@H]2[C@H](O)C[C@@H]2[C@@]4(C)CC[C@H](OCc5ccccc5)C(C)(C)[C@@H]4C(=O)C[C@]23C)O1, the IC50 was 300 nM. With COC(=O)CC[C@@]1(C)CC(=O)C[C@]2(C)[C@@H]1C[C@@H](O)[C@@H]1[C@@H]([C@@]3(C)CCCC(C)(C)O3)CC[C@]12C the IC50 was 410 nM. For CC1(C)CCC[C@](C)([C@H]2CC[C@]3(C)[C@@H]2[C@H](O)C[C@@H]2[C@@]4(C)Cc5c([nH]c6ccc(OC(F)(F)F)cc56)C(C)(C)[C@@H]4C(=O)C[C@]23C)O1, the IC50 was 360 nM. C=C(C)[C@@H]1C(=O)C[C@]2(C)[C@H](C[C@@H](O)[C@@H]3[C@@H]([C@@]4(C)CCCC(C)(C)O4)CC[C@]32C)[C@@]1(C)CCC(=O)OC gave an IC50 of 1090 nM. With COC(=O)CC[C@]1(C)[C@H]2C[C@@H](O)[C@@H]3[C@@H]([C@@]4(C)CCCC(C)(C)O4)CC[C@@]3(C)[C@]2(C)CC(=O)[C@H]1C(C)(C)O the IC50 was 260 nM. C=CCO[C@H]1C[C@]2(C)[C@H](C[C@@H](O)[C@@H]3[C@@H]([C@@]4(C)CCCC(C)(C)O4)CC[C@]32C)[C@@]2(C)CCC(=O)C(C)(C)[C@H]12 gave an IC50 of 910 nM. Molecule CC1(C)CCC[C@](C)([C@H]2CC[C@]3(C)[C@@H]2[C@H](OCc2ccccc2)C[C@@H]2[C@@]4(C)CCC(=O)C(C)(C)[C@@H]4[C@@H](OCc4ccccc4)C[C@]23C)O1 has an IC50 of 870 nM. Work on CC1(C)CCC[C@](C)([C@H]2CC[C@]3(C)[C@@H]2[C@H](O)C[C@@H]2[C@@]4(C)CCC(=O)C(C)(C)[C@@H]4[C@@H](O)C[C@]23C)O1 yielded an IC50 of 1140 nM. Work on CC1(C)CCC[C@](C)([C@H]2CC[C@]3(C)[C@@H]2C(=O)C[C@@H]2[C@@]4(C)CCC(=O)OC(C)(C)[C@@H]4[C@@H](O)C[C@]23C)O1 yielded an IC50 of 1230 nM. For CC1(C)CCC[C@](C)([C@H]2CC[C@]3(C)[C@@H]2[C@H](O)C[C@@H]2[C@@]4(C)CCC(=O)C(C)(C)[C@@H]4[C@@H](OCc4ccccc4)C[C@]23C)O1, the IC50 was 330 nM. Work on CC1(C)CCC[C@](C)([C@H]2CC[C@]3(C)[C@@H]2[C@H](O)C[C@@H]2[C@@]4(C)Cc5c([nH]c6ccccc56)C(C)(C)[C@@H]4C(=O)C[C@]23C)O1 yielded an IC50 of 770 nM. Work on CCO[C@H]1CC[C@]2(C)[C@H]3C[C@@H](O)[C@@H]4[C@@H]([C@@]5(C)CCCC(C)(C)O5)CC[C@@]4(C)[C@]3(C)CC(=O)[C@H]2C1(C)C yielded an IC50 of 1140 nM. With CC1(C)CCC[C@](C)([C@H]2CC[C@]3(C)[C@@H]2C(=O)C[C@@H]2[C@@]4(C)CCC(=O)C(C)(C)[C@@H]4[C@@H](O)C[C@]23C)O1 the IC50 was 700 nM. With CC1(C)CCC[C@](C)([C@H]2CC[C@]3(C)[C@@H]2[C@H](O)C[C@@H]2[C@@]4(C)CCC(=O)OC(C)(C)[C@@H]4C(=O)C[C@]23C)O1 the IC50 was 1180 nM. Molecule CC1(C)CCC[C@](C)([C@H]2CC[C@]3(C)[C@@H]2[C@H](O)C[C@@H]2[C@@]4(C)CC[C@H](O)C(C)(C)[C@@H]4[C@@H](O)C[C@]23C)O1 [PANAXATRIOL] has an IC50 of 1090 nM. Work on CC1(C)CCC[C@](C)([C@H]2CC[C@]3(C)[C@@H]2[C@H](O)C[C@@H]2[C@@]4(C)CC[C@H](O)C(C)(C)[C@@H]4C(=O)C[C@]23C)O1 yielded an IC50 of 1180 nM. Work on CC1(C)CCC[C@](C)([C@H]2CC[C@]3(C)[C@@H]2[C@H](O)C[C@@H]2[C@@](C)(CCC(=O)O)CC(=O)C[C@]23C)O1 yielded an IC50 of 540 nM. CC1(C)CCC[C@](C)([C@H]2CC[C@]3(C)[C@@H]2[C@H](O)C[C@@H]2[C@@]4(C)CC[C@H](OCc5ccc(OC(F)(F)F)cc5)C(C)(C)[C@@H]4C(=O)C[C@]23C)O1 showed an IC50 of 450 nM. CC1(C)CCC[C@](C)([C@H]2CC[C@]3(C)[C@@H]2[C@H](O)C[C@@H]2[C@@]4(C)CCC(=O)C(C)(C)[C@@H]4C(=O)C[C@]23C)O1 gave an IC50 of 810 nM. CC1(C)CCC[C@](C)([C@H]2CC[C@]3(C)[C@@H]2[C@H](O)C[C@@H]2[C@@]4(C)Cc5c([nH]c6ccc(F)cc56)C(C)(C)[C@@H]4C(=O)C[C@]23C)O1 gave an IC50 of 910 nM. With CC1(C)CCC[C@](C)([C@H]2CC[C@]3(C)[C@@H]2[C@H](O)C[C@@H]2[C@@]4(C)CC[C@H](Oc5noc(=O)[nH]5)C(C)(C)[C@@H]4C(=O)C[C@]23C)O1 the IC50 was 960 nM. Molecule CC1(C)CCC[C@](C)([C@H]2CC[C@]3(C)[C@@H]2[C@H](O)C[C@@H]2[C@@]4(C)CCC(=O)NC(C)(C)[C@@H]4C(=O)C[C@]23C)O1 has an IC50 of 410 nM.

System: not listed separately
Assay: Arrhythmogenic activity in Langendorff-perfused heart rat model at 0.26 umol/L administered for 30 mins following 60 mins perfusion with K-H solution
Type: toxicity, tissue-based
Conditions: 0.5 h, 0.26 µM
C[C@H]1O[C@@H](O[C@H]2[C@@H](O)C[C@H](O[C@H]3[C@@H](O)C[C@H](O[C@H]4CC[C@@]5(C)[C@H](CC[C@@H]6[C@@H]5C[C@@H](O)[C@]5(C)[C@@H](C7=CC(=O)OC7)CC[C@]65O)C4)O[C@@H]3C)O[C@@H]2C)C[C@H](O)[C@@H]1O [DIGOXIN] gave an Activity of 50%. COC(=O)CC[C@]1(C)[C@H]2C[C@@H](O)[C@@H]3[C@@H]([C@@]4(C)CCCC(C)(C)O4)CC[C@@]3(C)[C@]2(C)CC(=O)[C@H]1C(C)(C)O showed an Activity of 0%.
